Experimental data as given in publication PMC3757929 (Molecular pharmaceutics, 2013).
Read-outs that look alike come from different tables or passages of the source.

What was measured:
[1] = molecular target: T1, prostate specific membrane antigen (PSMA) (Homo sapiens, UniProt Q04609); assay: competitive binding on LNCaP cells with […]-GPI radioligand; format: cell-based
[2] = molecular target: T1, prostate specific membrane antigen (PSMA); assay: as above; format: cell-based; remark: listed apart in the source

T1 sequence (Q04609 whole entry): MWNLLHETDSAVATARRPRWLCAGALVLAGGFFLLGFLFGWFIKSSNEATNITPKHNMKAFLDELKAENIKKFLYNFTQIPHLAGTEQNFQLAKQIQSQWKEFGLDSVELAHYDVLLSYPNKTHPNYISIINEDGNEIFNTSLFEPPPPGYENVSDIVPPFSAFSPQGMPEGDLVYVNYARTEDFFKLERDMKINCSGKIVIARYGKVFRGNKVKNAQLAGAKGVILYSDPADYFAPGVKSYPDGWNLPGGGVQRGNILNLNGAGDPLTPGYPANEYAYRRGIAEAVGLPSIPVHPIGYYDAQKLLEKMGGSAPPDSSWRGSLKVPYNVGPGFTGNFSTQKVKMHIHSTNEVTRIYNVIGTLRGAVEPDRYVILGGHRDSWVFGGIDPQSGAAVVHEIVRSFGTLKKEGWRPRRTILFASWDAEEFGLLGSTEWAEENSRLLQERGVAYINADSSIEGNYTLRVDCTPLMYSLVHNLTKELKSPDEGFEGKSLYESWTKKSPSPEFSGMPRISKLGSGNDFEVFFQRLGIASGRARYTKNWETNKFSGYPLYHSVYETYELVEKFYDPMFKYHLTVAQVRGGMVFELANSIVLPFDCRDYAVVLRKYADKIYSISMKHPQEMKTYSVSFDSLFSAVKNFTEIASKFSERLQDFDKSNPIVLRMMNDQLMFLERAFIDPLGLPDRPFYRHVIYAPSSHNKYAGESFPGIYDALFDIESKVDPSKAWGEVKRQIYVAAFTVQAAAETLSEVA

| SMILES | IC50 [1] [nM] | IC50 [2] [nM] |
| --- | --- | --- |
| NC(CCP(=O)(O)CC(CCC(=O)O)C(=O)O)C(=O)O (racemic) [GPI, 2[(3-amino-3-carboxypropyl)(hydroxy)(phosphinyl)-methyl]pentane-1,5-dioic acid] | 460 ± 13 | – |
| O=C(O)CCC(CP(=O)(O)CCC(NC(=O)CCC(C(=O)O)N1CCCN2CCN(CCCN(CC(=O)O)CC2)CC1)C(=O)O)C(=O)O (racemic) [H2CBT1G] | – | 578 ± 81 |
| O=C(O)CCC(CP(=O)(O)CCC(NC(=O)CCC(C(=O)O)N1CCCN2CCN(CCCN(C(CCC(=O)NC(CCP(=O)(O)CC(CCC(=O)O)C(=O)O)C(=O)O)C(=O)O)CC2)CC1)C(=O)O)C(=O)O (racemic) [H2CBT2G] | – | 129 ± 17 |
